Assay results taken from US7671054B1, “Reverse-turn mimetics and method relating thereto” (Choongwae Pharma Corporation, priority 2001, dated 2010).
Like-named read-outs stand apart in the source and are kept apart here.

What was measured:
Assay type in all cases: cell-based
SW480 cells = assay: Growth inhibition assay (MTS); conditions: Homo sapiens, Table 5, SW480 cells, 48 hours treatment, MTS, read-out: Growth Inhibition (GI50, uM) SW480
Experimental: (§1) SW480 or HCT116 cells were placed into 96 well microplate (10^4cells/well) and incubated for 24 hours at 37° C. 20 μl of [3-(4,5-dimethylthiazol-2-yl)-5-(3-carboxyphenyl)-2-(4-sulfophenyl)-2H-tetrazolium, inner salt](MTS) solution (Promega) was added into each well and the absorbance after 2 hour incubation at 37° C. (negative control) was read. And then, the cells were treated with TCF4 compound at various concentrations for 48 hours. 20 μl of MTS solution (Promega) was added into each well and incubated for 2 hour at 37° C. Cell viability was measured by reading the absorbance at 490 nm using a microplate reader (Molecular device) and cytotoxicity of a compound at each concentration was calculated.
as §1, with “a test” for “TCF4”

HCT116 cells = assay: Growth inhibition assay (MTS); conditions: Homo sapiens, Table 5, HCT116 cells, 48 hours treatment, MTS, read-out: Growth Inhibition (GI50, uM) HCT116
Experimental: as §1
as §1, with “a test” for “TCF4”

[1] = tested on: TCF4/β-catenin transcription (TOPFlash) in SW480 cells; assay: Reporter gene assay (TOPFlash luciferase); conditions: Homo sapiens, SW480, Table 4; Reporter gene assay as described in Example 6; read-out: IC50
How it was run: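 SW480 cells transiently co-transfected with TOPFlash and pRL-null (4:1 µg) using Superfect, then reseeded at 3×10^4 cells/well and incubated overnight at 37 °C. Compound treatment lasted 24 h before luciferase read-out.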

Row | GI50 (SW480 cells; SW480, 48 h) [µM] | GI50 (HCT116 cells; HCT-116, 48 h) [µM] | Structure (SMILES) | further results
1 | 6.4 ± 0.5 | 5.8 ± 0.4 | CN1CC(=O)N2[C@@H](Cc3ccc(O)cc3)C(=O)N(Cc3cccc(N4CCCC4)c3)C[C@@H]2N1C(=O)NCc1ccccc1 [Compound 40] | 
2 | 0.3 ± 0.03 | 0.4 ± 0.1 | C=CCN1CC(=O)N2[C@@H](Cc3ccc(O)cc3)C(=O)N(Cc3cccc4cccnc34)C[C@@H]2N1C(=O)NCc1ccccc1 [Compound 100] | 
3 | 24.9 ± 2.2 | 37.9 ± 5.7 | C=CCN1CC(=O)N2[C@@H](Cc3ccc(O)cc3)C(=O)N(Cc3ccc4[nH]nnc4c3)C[C@@H]2N1C(=O)NCc1ccccc1 [Compound 108] | 
4 | 3.4 ± 0.4 | 3 ± 0.9 | [2H]c1cc(C[C@H]2C(=O)N(Cc3cccc4ccccc34)C[C@H]3N2C(=O)CN(C)N3C(=O)NCc2ccccc2)cc([2H])c1O [Compound 136] | 
5 | 26.3 ± 2.5 | 23.3 ± 1.2 | C=CCN1CC(=O)N2[C@@H](Cc3ccc(O)cc3)C(=O)N([C@@H](C)c3ccc(Cl)c4cccnc34)C[C@@H]2N1C(=O)NCc1ccccc1 [Compound 155] | 
6 | 6.8 ± 1.4 | 3.7 ± 0.6 | C#CCN1CC(=O)N2[C@@H](Cc3ccc(O)cc3)C(=O)N(Cc3ccc4ncsc4c3)C[C@@H]2N1C(=O)NCc1ccccc1 [Compound 113] | 
7 |  |  | C=CCN1CC(=O)N2[C@@H](Cc3ccc(OP(=O)(O)O)cc3)C(=O)N(Cc3cc(F)c(F)cc3N(C)C)C[C@@H]2N1C(=O)NCc1ccccc1 [Compound 133] | GI50 (SW480 cells): 2.3 ± 0.1 µM; GI50 (HCT116 cells; HCT-116): 2.1 ± 1.8 µM
8 | 4 ± 0.4 | 3.9 ± 0.7 | CCCN1CC(=O)N2[C@@H](Cc3ccc(O)cc3)C(=O)N(Cc3ccccc3)C[C@@H]2N1C(=O)NCc1ccccc1 [Compound 138] | 
9 | 10.9 ± 0.6 | 10.3 ± 1.6 | CN1CC(=O)N2[C@@H](Cc3ccc(O)cc3)C(=O)N(Cc3ccccc3N3CCOCC3)C[C@@H]2N1C(=O)NCc1ccccc1 [Compound 72] | 
10 | 2.8 ± 0.2 | 2.1 ± 0.3 | C=CCN1CC(=O)N2[C@@H](Cc3ccc(O)cc3)C(=O)N(Cc3ccc(C)c(N4CCOCC4)c3)C[C@@H]2N1C(=O)NCc1ccccc1 [Compound 105] | 
11 | 9.6 ± 1.6 | 6.5 ± 0.6 | CN1CC(=O)N2[C@@H]([C@H](O)c3ccc(O)cc3)C(=O)N(Cc3ccc(F)cc3F)C[C@@H]2N1C(=O)NCc1ccccc1 [Compound 86] | 
12 | 2.73 | 2.39 | CN1CC(=O)N2[C@@H](Cc3ccc(O)cc3)C(=O)N(Cc3ccc(Cl)cc3)C[C@@H]2N1C(=O)NCc1ccccc1 [Compound 3] | 
13 | 6.2 | 12.2 | CN1CC(=O)N2[C@@H](Cc3ccc(O)cc3)C(=O)N(Cc3cccc4[nH]ncc34)C[C@@H]2N1C(=O)NCc1ccccc1 [Compound 47] | 
14 | 7.3 | 4.7 | CN(Cc1ccccc1N)c1cccc(CN2C[C@H]3N(C(=O)CN(C)N3C(=O)NCc3ccccc3)[C@@H](Cc3ccc(O)cc3)C2=O)c1 [Compound 65] | 
15 | 5.02 | 2.75 | COc1ccc(CN2CC3N(C(=O)CN(C)N3C(=O)NCc3ccccc3)[C@@H](Cc3ccc(O)cc3)C2=O)cc1 (stereo partly shown) [Compound 20] | 
16 |  |  | C=CCN1CC(=O)N2[C@@H](Cc3ccc(OP(=O)(O)O)cc3)C(=O)N(Cc3ccc(OC)cc3)C[C@@H]2N1C(=O)NCc1ccccc1 [Compound 179] | GI50 (SW480 cells): 1.5 ± 0.1 µM; GI50 (HCT116 cells; HCT-116): 1.6 ± 0.1 µM
17 | 34.4 ± 9.6 | 14.7 ± 2.6 | CCN(CC)c1cc(F)ccc1[C@H](C)N1C[C@H]2N(C(=O)CN(C)N2C(=O)NCc2ccccc2)[C@@H](Cc2ccc(O)cc2)C1=O [Compound 41] | 
18 | 1 ± 0.1 | 1 ± 0.1 | C=CCN1CC(=O)N2[C@@H](Cc3ccc(O)cc3)C(=O)N(Cc3cccc4sc(Cl)nc34)C[C@@H]2N1C(=O)NCc1ccccc1 [Compound 187] | 
19 | 7 ± 1.1 | 4.4 ± 0.5 | CCCN1CC(=O)N2[C@@H](Cc3ccc(O)cc3)C(=O)N(Cc3ccc(Cl)c(N(C)C)c3)C[C@@H]2N1C(=O)NCc1ccccc1 [Compound 98] | 
20 |  |  | CN1CC(=O)N2[C@@H](Cc3ccc(O)cc3)C(=O)N(Cc3ccc(F)cc3)C[C@@H]2N1C(=O)NCc1ccccc1 [Compound 12] | GI50 (SW480 cells): 2.54 µM; GI50 (HCT116 cells; HCT-116): 1.48 µM
21 | 1.3 ± 0.1 | 1.4 ± 0.2 | C=CCN1CC(=O)N2[C@@H](Cc3ccc(O)cc3)C(=O)N(Cc3ccc(Cl)c(Cl)c3)C[C@@H]2N1C(=O)NCc1ccccc1 [Compound 150] | 
22 | 18.8 ± 4.8 | 1.3 ± 0.1 | CN1CC(=O)N2[C@@H](Cc3ccc(O)cc3)C(=O)N(Cc3cccc4c3cnn4Cc3ccccc3N)C[C@@H]2N1C(=O)NCc1ccccc1 [Compound 63] | 

Row | GI50 (SW480 cells; SW480, 48 h) [µM] | GI50 (HCT116 cells; HCT-116, 48 h) [µM] | Structure (SMILES) | further results
23 | 4.9 ± 0.4 | 4.5 ± 0.2 | C=CCN1CC(=O)N2[C@@H](Cc3ccc(O)cc3)C(=O)N(Cc3ccc(OC)cc3)C[C@@H]2N1C(=O)NCc1ccc(Cl)c(Cl)c1 [Compound 185] | 
24 | 0.7 ± 0.1 | 0.6 ± 0.1 | C=CCN1CC(=O)N2[C@@H](Cc3ccc(O)cc3)C(=O)N(Cc3cccc4scnc34)C[C@@H]2N1C(=O)NCc1ccccc1 [Compound 152] | 
25 | 2.2 ± 0.2 | 3.7 ± 0.3 | CN1CC(=O)N2[C@@H](Cc3ccc(O)cc3)C(=O)N(Cc3cccc4cnn(Cc5ccc(N)cc5)c34)C[C@@H]2N1C(=O)NCc1ccccc1 [Compound 78] | 
26 | 1.9 ± 0.2 | 1.8 ± 0.1 | C=CCN1CC(=O)N2[C@@H](Cc3ccc(O)cc3)C(=O)N(Cc3cccc4c3OCCO4)C[C@@H]2N1C(=O)NCc1ccc(Cl)c(Cl)c1 [Compound 174] | 
27 | 2.5 ± 0.2 | 2.9 ± 0.4 | C[C@H]1[C@@H]2N(C(=O)CN(C)N2C(=O)NCc2ccccc2)[C@@H](Cc2ccc(O)cc2)C(=O)N1Cc1ccc(F)cc1F [Compound 45] | 
28 | 8.1 ± 0.7 | 5 ± 1 | CN(C1CC1)C1CC=CC=C1CN1C[C@H]2N(C(=O)CN(C)N2C(=O)NCc2ccccc2)[C@@H](Cc2ccc(O)cc2)C1=O (stereo partly shown) [Compound 31] | 
29 | 1.7 ± 0.1 | 2 ± 0.2 | C=CCN1CC(=O)N2[C@@H](Cc3ccc(O)c(F)c3)C(=O)N(Cc3cccc4scnc34)C[C@@H]2N1C(=O)NCc1ccccc1 [Compound 186] | 
30 | 2.5 ± 0.1 | 2.2 ± 1.2 | C=CCN1CC(=O)N2[C@@H](Cc3ccc(O)cc3)C(=O)N(Cc3cc(F)c(F)cc3N(C)C)C[C@@H]2N1C(=O)NCc1ccccc1 [Compound 132] | 
31 | 13.8 ± 2.4 | 6.4 ± 1.3 | CCCN(C)c1cccc(CN2C[C@H]3N(C(=O)CN(C)N3C(=O)NCc3ccccc3)[C@@H](Cc3ccc(O)cc3)C2=O)c1 [Compound 34] | 
32 | 4.5 ± 0.3 | 2.8 ± 0.4 | C#CCN1CC(=O)N2[C@@H](Cc3ccc(O)cc3)C(=O)N(Cc3ccc(C)c(N4CCOCC4)c3)C[C@@H]2N1C(=O)NCc1ccccc1 [Compound 106] | 
33 |  | 1.8 ± 0.1 | C#CCN1CC(=O)N2[C@@H](Cc3ccc(O)cc3)C(=O)N(Cc3cc(F)c(F)cc3N(C)C)C[C@@H]2N1C(=O)NCc1ccccc1 [Compound 81] | 
34 |  |  | C=CCN1CC(=O)N2[C@@H](Cc3ccc(O)cc3)C(=O)N(Cc3cccc4c3OCO4)C[C@@H]2N1C(=O)NCc1ccccc1 [Compound 202] | IC50 [1]: 0.7 ± 0.1 µM
35 |  |  | CCN(CC)c1cccc(CN2C[C@H]3N(C(=O)CN(C)N3C(=O)NCc3ccccc3)[C@@H](Cc3ccc(O)cc3)C2=O)c1 [Compound 47] | IC50 [1]: 3.5 µM
36 |  |  | CN(c1cccc(CN2C[C@H]3N(C(=O)CN(C)N3C(=O)NCc3ccccc3)[C@@H](Cc3ccc(O)cc3)C2=O)c1)C1CC1 [Compound 57] | IC50 [1]: 9.4 ± 1.5 µM
37 |  |  | CN1CC(=O)N2[C@@H](Cc3ccc(O)cc3)C(=O)N(Cc3cccc4c3nnn4C)C[C@@H]2N1C(=O)NCc1ccccc1 [Compound 76] | IC50 [1]: 10.7 ± 2.5 µM
38 |  |  | CN1CC(=O)N2[C@@H](Cc3ccc(O)cc3)C(=O)N(Cc3cccc4ccccc34)C[C@@H]2N1C(=O)Nc1ccc(C(F)(F)F)cc1 [Compound 4] | IC50 [1]: 11.8 µM
39 |  |  | CN1CC(=O)N2C(CN(Cc3ccccc3F)C(=O)[C@@H]2Cc2ccc(O)cc2)N1C(=O)NCc1ccccc1 (stereo partly shown) [Compound 8] | IC50 [1]: 14.5 µM
40 |  |  | CC(C)N(C)c1cccc([C@@H](C)N2C[C@H]3N(C(=O)CN(C)N3C(=O)NCc3ccccc3)[C@@H](Cc3ccc(O)cc3)C2=O)c1 [Compound 67] | IC50 [1]: 6.8 µM
41 |  |  | C=CCN1CC(=O)N2[C@@H](Cc3ccc(OP(=O)(O)O)cc3)C(=O)N(Cc3ccc4c(c3)OCCO4)C[C@@H]2N1C(=O)NCc1ccccc1 [Compound 212] | IC50 [1]: 1.3 ± 0.3 µM
42 |  |  | C#CCNC(=O)c1ccccc1Cn1ncc2c(CN3C[C@H]4N(C(=O)CN(C)N4C(=O)NCc4ccccc4)[C@@H](Cc4ccc(O)cc4)C3=O)cccc21 [Compound 107] | IC50 [1]: 2.7 ± 0.3 µM
43 |  | 1.7 ± 0.3 | C=CCN1CC(=O)N2[C@@H](Cc3ccc(O)cc3)C(=O)N(Cc3cccc(N4CCCC4=O)c3)C[C@@H]2N1C(=O)NCc1ccccc1 [Compound 123] | 
44 |  |  | C=CCN1CC(=O)N2[C@@H](Cc3ccc(O)cc3)C(=O)N(Cc3cccc(N4CCCC4)c3)C[C@@H]2N1C(=O)NCc1ccccc1 [Compound 154] | IC50 [1]: 3.2 ± 0.4 µM
